Test results from ChEMBL document CHEMBL1151594, “Aromatic guanyl hydrazones: Synthesis, structural studies and in vitro activity against Trypanosoma cruzi” (1995).

Legend:
Assay type in all cases: functional
Trypanosoma cruzi = assay: In vitro inhibitory activity against trypomastigote form of Trypanosoma Cruzi.; details: read-out: ID50 (the source's name)
Mus musculus [1] = organism: Mus musculus; assay: Effect on lysis of erythrocytes after 24 hr at 4 degree centigrade; Value given as 150-200
Mus musculus [2] = organism: Mus musculus; assay: Effect on lysis of erythrocytes after 24 hr at 4 degree centigrade; Value given as 500-600
Mus musculus [3] = organism: Mus musculus; assay: Effect on lysis of erythrocytes after 24 hr at 4 degree centigrade; Value given as 40-50
Mus musculus [4] = organism: Mus musculus; assay: Effect on lysis of erythrocytes after 24 hr at 4 degree centigrade; Value given as 300-400
Mus musculus [5] = organism: Mus musculus; assay: Effect on lysis of erythrocytes after 24 hr at 4 degree centigrade; Value given as 100-150
Mus musculus [6] = organism: Mus musculus; assay: Effect on lysis of erythrocytes after 24 hr at 4 degree centigrade; Value given as 75-100
Mus musculus [7] = organism: Mus musculus; assay: Effect on lysis of erythrocytes after 24 hr at 4 degree centigrade; Value given as 500-700
Mus musculus [8] = organism: Mus musculus; assay: Effect on lysis of erythrocytes after 24 hr at 4 degree centigrade; Value given as 400-500
Mus musculus [9] = organism: Mus musculus; assay: Effect on lysis of erythrocytes after 24 hr at 4 degree centigrade; Value given as 250-300
Mus musculus [10] = organism: Mus musculus; assay: Effect on lysis of erythrocytes after 24 hr at 4 degree Centigrade
Mus musculus [11] = organism: Mus musculus; assay: Effect on lysis of erythrocytes after 24 hr at 4 degree centigrade; Value given as 1200-1400
Mus musculus [12] = organism: Mus musculus; assay: Effect on lysis of erythrocytes after 24 hr at 4 degree centigrade; Value given as 50-75
Mus musculus [13] = organism: Mus musculus; assay: Effect on lysis of erythrocytes after 24 hr at 4 degree centigrade; Value given as 700-1000

SMILES: Cl.N=C(N)N/N=C/c1ccc([N+](=O)[O-])cc1
- IC50 (Trypanosoma cruzi): 55.9 µM
- Total lysis (Mus musculus [1]): 150 µM

SMILES: COc1ccc(OC)c(/C=N/NC(=N)N)c1.Cl
- IC50 (Trypanosoma cruzi): 41.4 µM
- Total lysis (Mus musculus [1]): 150 µM

SMILES: COc1ccccc1/C=N/NC(=N)N.Cl
- IC50 (Trypanosoma cruzi): 86.3 µM
- Total lysis (Mus musculus [1]): 150 µM

SMILES: CN(C)c1ccc(/C=N/NC(=N)N)cc1.Cl
- IC50 (Trypanosoma cruzi): 202 µM
- Total lysis (Mus musculus [2]): 500 µM

SMILES: Cl.N=C(N)N/N=C/c1cc2c(cc1[N+](=O)[O-])OCO2
- IC50 (Trypanosoma cruzi): 17.1 µM
- Total lysis (Mus musculus [3]): 40 µM

SMILES: Cl.N=C(N)N/N=C/c1ccccc1O
- IC50 (Trypanosoma cruzi): 166 µM
- Total lysis (Mus musculus [4]): 300 µM

SMILES: COc1ccc(/C=N/NC(=N)N)c(OC)c1.Cl
- IC50 (Trypanosoma cruzi): 33.8 µM
- Total lysis (Mus musculus [5]): 100 µM

SMILES: CCOc1ccccc1/C=N/NC(=N)N.Cl
- Total lysis (Mus musculus [6]): 75 µM
- IC50 (Trypanosoma cruzi): 34.7 µM

SMILES: Cl.N=C(N)N/N=C/c1ccccc1[N+](=O)[O-]
- IC50 (Trypanosoma cruzi): 87.5 µM
- Total lysis (Mus musculus [1]): 150 µM

SMILES: Cl.N=C(N)N/N=C/c1cccc([N+](=O)[O-])c1
- IC50 (Trypanosoma cruzi): 183 µM
- Total lysis (Mus musculus [7]): 500 µM

SMILES: Cl.N=C(N)N/N=C/c1ccccc1N
- IC50 (Trypanosoma cruzi): 261 µM
- Total lysis (Mus musculus [2]): 500 µM

SMILES: Cl.N=C(N)N/N=C/c1ccccc1
- Total lysis (Mus musculus [8]): 400 µM

SMILES: CCOc1cccc(/C=N/NC(=N)N)c1O.Cl
- IC50 (Trypanosoma cruzi): 97.8 µM
- Total lysis (Mus musculus [1]): 150 µM

SMILES: Cc1ccc(/C=N/NC(=N)N)cc1.Cl
- IC50 (Trypanosoma cruzi): 103 µM
- Total lysis (Mus musculus [9]): 250 µM

SMILES: Cl.N=C(N)N/N=C/c1cccc([N+](=O)[O-])c1O
- Total lysis (Mus musculus [10]): >1400 µM
- IC50 (Trypanosoma cruzi): 876 µM

SMILES: Cl.N=C(N)N/N=C/c1cc2c(cc1N)OCO2
- IC50 (Trypanosoma cruzi): 221 µM
- Total lysis (Mus musculus [2]): 500 µM

SMILES: Cl.N=C(N)N/N=C/c1ccc(C(=O)O)cc1
- IC50 (Trypanosoma cruzi): 573 µM
- Total lysis (Mus musculus [11]): 1200 µM

SMILES: Cl.N=C(N)N/N=C/c1cc2c(cc1Br)OCO2
- Total lysis (Mus musculus [12]): 50 µM

SMILES: Cl.N=C(N)N/N=C/c1ccc2c(c1)OCO2
- Total lysis (Mus musculus [13]): 700 µM

SMILES: COc1cc(/C=N/NC(=N)N)ccc1O
- IC50 (Trypanosoma cruzi): > 4800 µM

SMILES: COc1cccc(/C=N/NC(=N)N)c1OC.Cl
- Total lysis (Mus musculus [6]): 75 µM

SMILES: Cl.N=C(N)N/N=C/c1ccc(Cl)cc1
- Total lysis (Mus musculus [5]): 100 µM

SMILES: CN(C)c1ccc(C(=C2C=CC(=[N+](C)C)C=C2)c2ccc(N(C)C)cc2)cc1 [GENTIAN VIOLET]
- IC50 (Trypanosoma cruzi): 536 µM
